# Source: the supplement of paper PMC9938120
# System: FMOC25_1 (patient-derived low-grade serous ovarian cancer cells)
# Assay: drug sensitivity score (DSS3, normalised partial AUC of % inhibition dose-response) (DSS (score)); higher = more sensitive (stronger inhibition of viability); extreme values may be limits of the assay
# Settings: 72 h; library: FO4B; assay format: 2D, 384-well, CellTiter-Glo
# Outline: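 Patient-derived ovarian cancer cells (early passage, under 10) were dispensed onto 384-well flat clear-bottom plates pre-plated with compounds at five concentrations covering a 10,000-fold range. Plates were incubated 72 h at 37 °C, 5% CO2, and viability was read with CellTiter-Glo. Data were processed in Breeze. The drug sensitivity score (DSS3) is a partial area under the percent-inhibition dose-response curve, divided by the log of the upper asymptote; higher means more sensitive.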
row,SMILES,drug sensitivity score
1,COc1cc2c(cc1O)CC[C@@H]1[C@@H]2CC[C@]2(C)[C@@H](O)CC[C@@H]12 [2-methoxyestradiol],4.1
2,CCCCC/C=C/C=C1/C(=O)C=C[C@@H]1C/C=C\CCCC(=O)O [15D-PGJ2],0
3,COc1cc(O)c2c(c1)/C=C/C[C@H](O)[C@H](O)C(=O)/C=C\C[C@H](C)OC2=O [(5Z)-7-Oxozeaenol],0
4,Cc1ccccc1C(C(=O)NC1CCCCC1)N(C(=O)Cn1ccnc1C)c1cccc(F)c1 (configuration not stated) [AGI-5198],0
5,O=C(Nc1cccc(C(F)(F)F)c1)Nc1cc(S(=O)(=O)NC2CC2)ccc1-c1ccsc1 [AGI-6780],0.4
6,COc1ccc2c(OCc3nnc4ccc(-c5ccccc5)nn34)ccnc2c1 [AMG-208],1.3
7,Cc1csc(-c2nnc(Nc3ccc(Oc4ncccc4-c4ccnc(N)n4)cc3)c3ccccc23)c1 [AMG-900],0.8
8,CNC(=O)c1ccc(N2C(=S)N(c3cnc(C#N)c(C(F)(F)F)c3)C(=O)C23CCC3)cc1F [ARN 509],0
9,CC(C)Oc1cc(Nc2nc(N[C@@H](C)c3ccc(F)cn3)ncc2Cl)n[nH]1 [AZ-23],0
10,CNC(=O)c1cccc(-c2ccc3c(N4CCOC[C@@H]4C)nc(N4CCOC[C@@H]4C)nc3n2)c1 [AZD2014],20.5
11,Cc1cc(C(=O)NOCCO)c(Nc2ccc(I)cc2F)n(C)c1=O [AZD-8330],22.2
12,CN(C)c1nc(N(C)C)nc(N(C)C)n1 [Altretamine],0
13,CO[C@H]1/C=C\C=C(/C)C(=O)NC2=CC(=O)C(NCCN(C)C)=C(C[C@@H](C)C[C@H](OC)[C@H](O)[C@@H](C)/C=C(\C)[C@@H]1OC(N)=O)C2=O [Alvespimycin],4.1
14,CN(C)CCN1C(=O)c2cccc3cc(N)cc(c23)C1=O [Amonafide],6.8
15,Cc1c(CN2CCN(C(=O)[C@H](C)O)CC2)sc2c(N3CCOCC3)nc(-c3cnc(N)nc3)nc12 [Apitolisib],18.1
16,Cn1c(CCCC(=O)O)nc2cc(N(CCCl)CCCl)ccc21 [Bendamustine],0
17,CS(=O)(=O)OCCCCOS(C)(=O)=O [Busulfan],0
18,C#Cc1cccc(Nc2ncnc3cc(OC)c(OCCCCCCC(=O)NO)cc23)c1 [CUDC-101],17
19,Cc1nc(N)sc1-c1ccnc(Nc2ccc(N3CCOCC3)cc2)n1 [CYC-116],6.4
20,CC[C@@]1(O)C(=O)OCc2c1cc1n(c2=O)Cc2cc3ccccc3nc2-1 [Camptothecin],17
21,O=NN(CCCl)C(=O)NCCCl [Carmustine],0.4
22,O=C(O)CCCc1ccc(N(CCCl)CCCl)cc1 [Chlorambucil],0
23,O=P1(N(CCCl)CCCl)NCCCO1 (configuration not stated) [Cyclophosphamide],0
24,CN(C)/N=N/c1[nH]cnc1C(N)=O [Dacarbazine],0
25,CCN(CC)C(=S)SSC(=S)N(CC)CC [Disulfiram],3.7
26,C[C@]12CC[C@@H]3c4ccc(OC(=O)N(CCCl)CCCl)cc4CC[C@H]3[C@@H]1CC[C@@H]2O [Estramustine],0

row,SMILES,drug sensitivity score
1,Cc1nc(C(=O)NCC(=O)O)c(O)c2ccc(Oc3ccccc3)cc12 [FG-4592],0
2,O=S(=O)(c1cccc2cnccc12)N1CCCNCC1 [Fasudil],0
3,Cn1nccc1Nc1nccc(-c2ccn([C@H](CO)c3ccc(Cl)c(F)c3)c(=O)c2)n1 [GDC-0994],6
4,O=P1(NCCCl)OCCCN1CCCl (configuration not stated) [Ifosfamide],0
5,NC(=O)c1ccc(I)c([N+](=O)[O-])c1 [Iniparib],0
6,CCc1c2c(nc3ccc(OC(=O)N4CCC(N5CCCCC5)CC4)cc13)-c1cc3c(c(=O)n1C2)COC(=O)[C@]3(O)CC [Irinotecan],5.1
7,CCCNC(=O)Nc1ccc(Oc2ncnc3cc(OC)c(OC)cc23)cc1Cl [KRN-633],0
8,O=C(c1ccc(/C=C/c2n[nH]c3ccccc23)cc1)N1CCNCC1 [KW-2449],0
9,O=C(Cc1ccc(-c2ccc(OCCN3CCOCC3)cc2)cn1)NCc1ccccc1 [KX2-391],12.7
10,CN[C@@H](C)C(=O)N[C@H](C(=O)N1CCC[C@H]1c1nc(C(=O)c2ccc(F)cc2)cs1)C1CCCCC1 [LCL161],7.7
11,C[C@]12O[C@H](C[C@]1(O)CO)n1c3ccccc3c3c4c(c5c6ccccc6n2c5c31)CNC4=O [Lestaurtinib],5.3
12,c1ccc([C@H]2CN3CCSC3=N2)cc1 [Levamisole],0
13,O=NN(CCCl)C(=O)NC1CCCCC1 [Lomustine],0
14,C=CCn1c(=O)c2cnc(Nc3ccc(N4CCN(C)CC4)cc3)nc2n1-c1cccc(C(C)(C)O)n1 [MK1775],11.5
15,CN(C[C@@H]1COCCO1)S(=O)(=O)Nc1ccc2ccc3ncc(-c4cnn(C)c4)cc3c(=O)c2c1 [MK-2461],2.8
16,CC(C)n1nc(-c2ccc3oc(N)nc3c2)c2c(N)ncnc21 [MLN-0128],21
17,O=C(O)c1ccc(Nc2ncc3c(n2)-c2ccc(Cl)cc2C(c2c(F)cccc2F)=NC3)cc1 [MLN-8054],0
18,N[C@@H](Cc1ccc(N(CCCl)CCCl)cc1)C(=O)O [Melphalan],0
19,CCN1CCN(Cc2ccc(-c3cc4c(N[C@H](C)c5ccccc5)ncnc4[nH]3)cc2)CC1 [NVP-AEE788],6
20,CCN1CCN(c2ccc(Nc3cc(N(C)C(=O)Nc4c(Cl)c(OC)cc(OC)c4Cl)ncn3)cc2)CC1 [NVP-BGJ398],0
21,CNC(=O)c1ccc(-c2cnc3ncc(Cc4ccc5ncccc5c4)n3n2)cc1F [NVP-INC280],0
22,COc1ccc(C2=N[C@@H](c3ccc(Cl)cc3)[C@@H](c3ccc(Cl)cc3)N2C(=O)N2CCNC(=O)C2)c(OC(C)C)c1 [Nutlin-3],3.5
23,COc1cccc2cc(-c3nc([C@H]4CC[C@H](C(=O)O)CC4)n4ncnc(N)c34)[nH]c12 [OSI-027],8.2
24,O=C(Nc1ccc(OC(F)(F)F)cc1)c1sccc1NCc1ccnc2ccccc12 [OSI-930],0
25,CC(=O)c1cnc2ccc(-c3cc(Cl)c(O)c(Cl)c3)nc2c1N[C@H]1CC[C@H](CN(C)C)CC1 [OTSSP167],7.7
26,Cc1sc2c(c1C)C(c1ccc(Cl)cc1)=N[C@@H](CC(=O)Nc1ccc(O)cc1)c1nnc(C)n1-2 [OTX015],6.3

row,SMILES,drug sensitivity score
1,COC1=CC(c2cc3ccccc3[nH]2)=N/C1=C\c1[nH]c(C)cc1C [Obatoclax],1.8
2,Cc1[nH]c(/C=C2\C(=O)Nc3ccccc32)c(C)c1CCC(=O)O [Orantinib],2.6
3,CCn1nnc2c(N3CCOCC3)nc(-c3ccc(NC(=O)Nc4ccc(C(=O)N5CCN(C)CC5)cc4)cc3)nc21 [PKI-402],19.1
4,C/C(=C\c1csc(C)n1)[C@@H]1C[C@@H]2O[C@]2(C)CCC[C@H](C)[C@H](O)[C@@H](C)C(=O)C(C)(C)[C@@H](O)CC(=O)O1 [Patupilone],9.3
5,CCOc1cc2ncc(C#N)c(Nc3ccc(F)c(Cl)c3)c2cc1NC(=O)/C=C/CN(C)C [Pelitinib],13.1
6,COc1ccc(Cl)c(Nc2nc3ccccc3nc2NS(=O)(=O)c2cccc(NC(=O)C(C)(C)N)c2)c1 [Pilaralisib],2.2
7,O=C(NC[C@H](O)CO)c1ccncc1Nc1ccc(I)cc1F [Pimasertib],14.7
8,O=C(CCBr)N1CCN(C(=O)CCBr)CC1 [Pipobroman],1.6
9,C[C@]12C=CC(=O)C=C1CC[C@@H]1[C@@H]2C(=O)C[C@@]2(C)[C@H]1CC[C@]2(O)C(=O)CO [Prednisone],0
10,CNNCc1ccc(C(=O)NC(C)C)cc1 [Procarbazine],0
11,Cc1cc(-c2ncc(-c3cccnc3)cc2/C=C/c2ccccc2)cnc1-c1cccnc1 [Pyridoclax],5.5
12,Cn1c(Nc2ccc(C(F)(F)F)cc2)nc2cc(Oc3ccnc(-c4ncc(C(F)(F)F)[nH]4)c3)ccc21 [RAF265],8.1
13,CNC(=O)c1ccc(N2C(=S)N(c3ccc(C#N)c(C(F)(F)F)c3)C(=O)C23CCC3)cc1F [RD162],0
14,CCNC(=O)Nc1ccc(-c2nc3c(c(N4CCOC[C@@H]4C)n2)CCN(C2COC2)C3)cc1 [RG-7603],7.8
15,C[C@@H]1C[C@H]2O[C@@H]2/C=C\C=C\C(=O)Cc2c(Cl)c(O)cc(O)c2C(=O)O1 [Radicicol],3.2
16,CNC(=O)c1cc(Oc2ccc(NC(=O)Nc3cc(C(C)(C)C)nn3-c3ccc4ncccc4c3)c(F)c2)ccn1 [Rebastinib],0
17,COc1cc(F)c(F)c(Nc2ccc(I)cc2F)c1NS(=O)(=O)C1(C[C@H](O)CO)CC1 [Refametinib],14.8
18,CS(=O)(=O)c1ccc(C2=C(c3ccccc3)C(=O)OC2)cc1 [Rofecoxib],0
19,Cn1cc(-c2ccc3nnc(Sc4ccc5ncccc5c4)n3n2)cn1 [SGX-523],0
20,CC(C)NC(=O)COc1cccc(-c2nc(Nc3ccc4[nH]ncc4c3)c3ccccc3n2)c1 [SLx-2119],2.7
21,O=C(Nc1cccc(Cl)c1)Nc1ncc(CCNc2ncnc3ccsc23)s1 [SNS-314],0.4
22,Cc1cc(C)c(/C=C2\C(=O)Nc3ccccc32)[nH]1 [Semaxanib],4.4
23,c1ccc2c(CCNc3ccc(Nc4ccncc4)cc3)c[nH]c2c1 [Serdemetan],3.4
24,O=[N+]([O-])c1ccc2c(c1)S(=O)(=O)C=C2 [Stattic],6.3
25,CN(N=O)C(=O)N[C@@H](C=O)[C@@H](O)[C@H](O)[C@H](O)CO [Streptozocin],0
